Assay results: US20160031937A1, “NEURAL REGENERATION PEPTIDES AND USES THEREFOR” (CURONZ HOLDINGS COMPANY LIMITED, priority 2013, published 2016)
Square brackets hold non-standard residues; d marks the D form. Ends that are not written are not given here. Aib = CC(C)(N)C(=O)O

Experiments:
[1] = test system: human W9-hESCs; assay: TUNEL staining for apoptotic cell death after H2O2 injury; format: cell-based; details: H2O2 oxidative stress, 24 hours; 100 fM NRP2945
Procedure: Neuronal differentiation was achieved using the noggin induction method described for mouse neurospheres as adapted by Dottori for human neurospheres (Dottori & Pera, 2007). The colonies were maintained at 37° C., with 5% CO2 in hESC medium supplemented with 500 ng/ml of Noggin for 14 days while replacing Noggin every other day.
At this point, the cells were washed with PBS and the colonies were again mechanically dissociated, but this time the central (differentiated) part of the colony was also cut into smaller pieces using a 26-gauge needle. […]
The media was replaced with fresh NBM-AO and the cells were incubated for a further 20 hours containing drug, before again measuring LDH. Oxidative stress was induced by adding 50 μM fresh H2O2 (Sigma, H1009) to the growth factor negative NBM on initiation of the experiment with continued culture for 4 hours when LDH was measured and NBM-AO without H2O2 was returned to the culture which was maintained for a further 20 hours before again measuring LDH. […]
Tunnel positive cells, wells were imaged and the images re-coded independently before quantitation. No additional blinding was performed for the machine read LDH assay process.

[2] = target: T1, homodimeric CXCR4 receptor (Homo sapiens, UniProt P61073); assay: 125I-SDF-1 displacement binding study (CEREP); details: recombinant homodimeric CXCR4 expressing HEK293 cells; unlabelled peptide in competition
T1 construct: host or cells: HEK293
Procedure: This was determined by radioactive ^125I-SDF-1 displacement studies using CXCR4 homodimeric receptors and unlabelled NNZ-4921 and NRP2945 in competition.

[3] = test system: CXCR4 gene expression; assay: CXCR4 gene expression by real time PCR; format: cell-based, human; details: W9-hESCs
Procedure: The second experiment was done to assess the capability of NRP2945 for regulating the gene expression of its target receptor subunit CXCR4. For this purpose, W9-hESCs were either exposed to 10 minute, 30 minute or 60 minute of either 10 pM or 100 pM of NRP2945 under normoxic conditions; or in combination with 4 hours of OGD injury at concentrations of either 10 pM or 100 pM of NRP2945. At the end of the 4 hours, mRNA was extracted from all the cell samples, cDNA synthesis was performed using the SuperSript® cDNA kit (Invitrogen) followed by real time PCR. The efficacy of the real time PCR was 99% when using the following primers for the CXCR4 product propagation: […]
according to the publication: Nagase, Miyamasu et al. (2000) - J Immunol 164: 5935-5943

[4] = test system: human DU-145 prostate cancer cells; assay: DU-145 Boyden chamber motility bioassay; format: cell-based; details: 0.1 ng/ml NRP2945 adhered to Boyden chamber bottom plate, 24 hours of incubation
Source text: Human epithelial DU-145 cells were obtained from ATCC (HTB-81). The DU-145 cell line was originally isolated from a metastatic prostate-derived cancer formed in the brain. The cells are adherent, and co-express CXCR4 and CCR3 receptors similar to neuroblasts and neurons. For this experiment, DU-145 cells were cultivated in ATCC-formulated Eagle's Minimum Essential Medium with 10% FBS in 5% CO2 at 37′C. The cells were then subcultivated as follows.
The media was removed and discarded. The cell layer was briefly rinsed with 0.25% (w/v) trypsin and 0.5 mM EDTA to remove all remaining trypsin inhibitors from the serum. To each flask, 2-3 ml of trypsin-EDTA solution was added. This was incubated at room temperature.
The cells were observed under an inverted microscope until dislodgement (between 10-15 minutes). Shaking was avoided to prevent the cells from clumping. […]
The Boyden chamber inserts (Corning) were coated for 2 hours at 37° C. with […] poly-D-lysine (PDL; culture grade from Invitrogen). […] The coated Boyden chamber could then be refrigerated, stored, and ready for cell seeding. […]
Cells were counted and 50,000 cells were seeded into one insert of a 12-well Boyden chamber. […]
DU-145 cells attached to the lower insert membrane were visualized and counted with standard cell visualization methods using hematoxyclin staining. […]

[5] = test system: neuronal stem cells; assay: Neuronal chemoattraction; format: cell-based
[6] = test system: endogenous NRP gene expression; assay: Endogenous NRP gene expression in human embryonic W9 stem cells; format: cell-based; details: 100 fM NRP2945

T1 sequence (P61073 whole entry): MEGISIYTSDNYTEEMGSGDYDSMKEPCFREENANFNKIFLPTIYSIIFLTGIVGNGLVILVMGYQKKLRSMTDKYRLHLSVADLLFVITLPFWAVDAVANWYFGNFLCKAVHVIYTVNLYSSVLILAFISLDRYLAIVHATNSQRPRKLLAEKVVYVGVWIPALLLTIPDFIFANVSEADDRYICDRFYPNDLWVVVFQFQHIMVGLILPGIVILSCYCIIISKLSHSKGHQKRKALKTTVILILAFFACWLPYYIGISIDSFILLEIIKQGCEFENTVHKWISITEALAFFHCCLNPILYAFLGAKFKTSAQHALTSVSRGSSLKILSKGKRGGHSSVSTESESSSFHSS

Gly Arg Arg Ala Ala Pro Gly Arg Aib Gly Gly (GRRAAPGR[Aib]GG) [NRP2945, synthetic 11-mer peptidomimetic optimized for stability and pharmacokinetics]
cells spared from apoptosis (TUNEL) [1]: 56.2%
displacement of 125I-SDF-1 from homodimeric CXCR4 receptor [2]: do not bind to the homodimeric CXCR4 receptor
CXCR4 gene expression in the presence of OGD ([3]; 4 hours of OGD, 10 pM or 100 pM NRP2945): unchanged
expression of CXCR4 gene ([3]; normoxic conditions, 10 pM or 100 pM NRP2945, relative to normoxic control, normalised to β actin): decreased significantly after only 10 minutes
time of peak in CXCR4 gene down-regulation ([3]; normoxic, maintained for at least 1 hour): 30 min
extent of CXCR4 down-regulation ([3]; within 30 minutes): constitutively expressed levels seen in a human tissue cDNA library
decrease of migrating cells [4]: 36%
neuronal chemoattractive potency relative to SDF-1 ([5]; NRP2945 versus SDF-1): more than 1 million
EC50 values for chemoattraction ([5]; preliminary experiments): lower femtomolar range
time to stimulated endogenous NRP gene expression after administration [6]: 5 to 10 min
